Patent US6440405B1, “Quaternary ammonium functionalized dendrimers and methods of use therefor” (priority 1999, dated 2002)

Legend:
Staphylococcus aureus = settings: reported results; cited from earlier work
[1] = test system: recombinant E. coli strain TV 1048; assay: Bioluminescence method (light-off response) with recombinant E. coli strain TV 1048; format: cell-based; settings: at 5 min; by interpolation of bioluminescence against concentration curves

SMILES: CCCCCCCCCCCC[N+](C)(C)C.[Cl-] [DTAC, n-dodecyltrimethyl ammonium chloride]
- effectiveness against S. aureus compared with D4ClNC12 (in words) (Staphylococcus aureus): Somewhat less effective
- EC50 (concentration causing a 50% reduction of the bioluminescence) [1]: about 2000 ppm
